In brackets after ≈: the same amount, converted by molar mass. Where two headings read alike, the source gives them in different places.
Assays:
[1] = system: Cryptococcus neoformans M 106; assay: MIC determination (NCCLS M27A/M38P broth dilution); assay type: cell-based
[2] = system: Candida glabrata 90030; assay: MIC determination (NCCLS M27A/M38P broth dilution); assay type: cell-based
[3] = system: Candida parapsilosis 22019 (QC); assay: MIC determination (NCCLS M27A/M38P broth dilution); assay type: cell-based
[4] = system: Candida krusei 6258 (QC); assay: MIC determination (NCCLS M27A/M38P broth dilution); assay type: cell-based
[5] = system: Candida albicans Y-01-19; assay: MIC determination (NCCLS M27A/M38P broth dilution); assay type: cell-based
[6] = system: Candida tropicalis 750; assay: MIC determination (NCCLS M27A/M38P broth dilution); assay type: cell-based
[7] = system: Aspergillus fumigatus 1008; assay: MIC determination (NCCLS M27A/M38P broth dilution); assay type: cell-based
[8] = system: Aspergillus fumigatus Si-I; assay: MIC determination (NCCLS M27A/M38P broth dilution); assay type: cell-based
[9] = system: Paecilomyces variotti 22319(QC); assay: MIC determination (NCCLS M27A/M38P broth dilution); assay type: cell-based
[10] = system: Candida krusei 766.1; assay: MIC determination (NCCLS M27A/M38P broth dilution); assay type: cell-based
[11] = system: Candida albicans 1122; assay: MIC determination (NCCLS M27A/M38P broth dilution); assay type: cell-based
[12] = system: Cryptococcus neoformans; conditions: cited from earlier work
[13] = target: ergosterol P450DM (Candida albicans, UniProt P10613); conditions: cited from earlier work
Sequence of ergosterol P450DM (Candida albicans, UniProt P10613) (P10613 whole entry): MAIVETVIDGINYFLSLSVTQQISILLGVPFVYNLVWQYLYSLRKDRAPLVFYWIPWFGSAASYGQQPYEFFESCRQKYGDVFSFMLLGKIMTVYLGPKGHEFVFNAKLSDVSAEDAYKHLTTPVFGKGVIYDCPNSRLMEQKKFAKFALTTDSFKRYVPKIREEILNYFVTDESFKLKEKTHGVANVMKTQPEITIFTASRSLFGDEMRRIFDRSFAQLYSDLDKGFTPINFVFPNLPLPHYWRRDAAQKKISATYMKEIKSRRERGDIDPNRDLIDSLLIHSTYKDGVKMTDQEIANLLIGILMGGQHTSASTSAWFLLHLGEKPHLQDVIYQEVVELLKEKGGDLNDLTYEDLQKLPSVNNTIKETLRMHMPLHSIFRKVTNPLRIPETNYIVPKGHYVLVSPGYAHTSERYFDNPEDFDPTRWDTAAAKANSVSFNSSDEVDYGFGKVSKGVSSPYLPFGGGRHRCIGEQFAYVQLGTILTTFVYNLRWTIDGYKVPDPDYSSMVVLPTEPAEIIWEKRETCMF

[14] = system: ergosterol P450DM; conditions: cited from earlier work
[15] = Candida krusei 6258 (QC), RPMI 1640, MOPS pH 7
[16] = Aspergillus fumigatus 1008, RPMI 1640, MOPS pH 7
[17] = Aspergillus fumigatus Si-I, RPMI 1640, MOPS pH 7
[18] = Paecilomyces variotti 22319(QC), RPMI 1640, MOPS pH 7
[19] = M106, RPMI 1640, MOPS pH 7, read-out: MIC
[20] = Nakaseomyces glabratus, RPMI 1640, MOPS pH 7, read-out: MIC
[21] = RPMI 1640, MOPS pH 7, read-out: MIC
[22] = Pichia kudriavzevii, Candida krusei 6258 (QC), RPMI 1640, MOPS pH 7, read-out: MIC
[23] = Y0119, RPMI 1640, MOPS pH 7, read-out: MIC
[24] = Paecilomyces variotti 22319(QC), RPMI 1640, MOPS pH 7, read-out: MIC
[25] = Pichia kudriavzevii, RPMI 1640, MOPS pH 7, read-out: MIC
[26] = Aspergillus fumigatus 1008, RPMI 1640, MOPS pH 7, read-out: MIC

Row | Compound | MIC ([1]; RPMI 1640, MOPS pH 7) [µg/mL] | MIC ([2]; RPMI 1640, MOPS pH 7) [µg/mL] | MIC ([3]; RPMI 1640, MOPS pH 7) [µg/mL] | MIC [4, 15] [µg/mL] | MIC ([5]; RPMI 1640, MOPS pH 7) [µg/mL] | MIC ([6]; RPMI 1640, MOPS pH 7) [µg/mL] | MIC [7, 16] [µg/mL] | MIC [8, 17] [µg/mL] | MIC [9, 18] | MIC ([10]; RPMI 1640, MOPS pH 7) [µg/mL] | MIC ([11]; RPMI 1640, MOPS pH 7) [µg/mL] | MIC [1, 19] [µg/mL] | MIC [2, 20] [µg/mL] | MIC [3, 21] [µg/mL] | MIC [5, 23] [µg/mL] | MIC [6, 21] [µg/mL] | MIC [10, 25] [µg/mL] | MIC [11, 21] [µg/mL] | also measured
1 | C[C@@H](n1ccn(-c2ccc(OCC(F)(F)C(F)F)cc2)c1=S)[C@](O)(Cn1cncn1)c1ccc(F)cc1F [compound 6, 1-[(1R,2R)-2-(2,4-Difluorophenyl)-2-hydroxy-1-methyl-3-(1H-1,2,4-triazol-1-yl)propyl]-3-[4-(2,2,3,3-tetrafluoropropoxy)phenyl]-2-(1H,3H)-thioimidazolone] | <0.00025 | 2 (≈ 3.59 µM) | <0.00025 | 0.125 (≈ 0.224 µM) | 0.5 (≈ 0.897 µM) | <0.00025 | 0.125 (≈ 0.224 µM) | 0.016 (≈ 0.0287 µM) | Long trailing effect | 0.5 (≈ 0.897 µM) | <0.00025 | – | – | – | – | – | – | – | –
2 | C[C@@H](n1ccn(-c2ccc(-n3ncnn3)cc2)c1=S)[C@](O)(Cn1cncn1)c1ccc(F)cc1F [compound 5, 1-[(1R,2R)-2-(2,4-Difluorophenyl)-2-hydroxy-1-methyl-3-(1H-1,2,4-triazol-1-yl)propyl]-3-[4-(2H-2-tetrazolyl)phenyl]-2-(1H,3H)-thioimidazolone] | <0.00025 | 1 (≈ 2.02 µM) | <0.00025 | 0.06 (≈ 0.121 µM) | 0.5 (≈ 1.01 µM) | <0.00025 | 0.125 (≈ 0.252 µM) | 0.016 (≈ 0.0323 µM) | Long trailing effect | 0.5 (≈ 1.01 µM) | <0.00025 | – | – | – | – | – | – | – | –
3 | OC(Cn1cncn1)(Cn1cncn1)c1ccc(F)cc1F [FLU, FLUCONAZOLE] | – | – | – | – | – | – | – | – | – | – | – | 4 (≈ 13.1 µM) | 16 (≈ 52.2 µM) | 2 (≈ 6.53 µM) | 16 (≈ 52.2 µM) | 2 (≈ 6.53 µM) | 64 (≈ 209 µM) | 0.5 (≈ 1.63 µM) | MIC [4, 22]: 32 µg/mL (≈ 104 µM); MIC ([7]; Aspergillus fumigatus, 1008, pH 7): > 128 µg/mL; MIC ([8]; Aspergillus fumigatus, pH 7): > 128 µg/mL; MIC [9, 24]: 2 µg/mL (≈ 6.53 µM)
4 | C[C@@H]1[C@H](O)[C@@H](C)/C=C/C=C/C=C/C=C/C=C/C=C/C=C/[C@H](O[C@@H]2O[C@H](C)[C@@H](O)[C@H](N)[C@@H]2O)C[C@@H]2O[C@](O)(C[C@@H](O)C[C@@H](O)[C@H](O)CC[C@@H](O)C[C@@H](O)CC(=O)O[C@H]1C)C[C@H](O)[C@H]2C(=O)O [AMB, AMPHOTERICIN B] | 0.06 (≈ 0.0649 µM) | 0.5 (≈ 0.541 µM) | 0.125 (≈ 0.135 µM) | 0.25 (≈ 0.271 µM) | 0.25 (≈ 0.271 µM) | 0.125 (≈ 0.135 µM) | 0.25 (≈ 0.271 µM) | 0.5 (≈ 0.541 µM) | 0.25 µg/mL (≈ 0.271 µM) | 0.25 (≈ 0.271 µM) | 0.25 (≈ 0.271 µM) | – | – | – | – | – | – | – | –
5 | C[C@@H](n1ccn(-c2ccc(-n3cnnn3)cc2)c1=S)[C@](O)(Cn1cncn1)c1ccc(F)cc1F [compound 4, 1-[(1R,2R)-2-(2,4-Difluorophenyl)-2-hydroxy-1-methyl-3-(1H-1,2,4-triazol-1-yl)propyl]-3-[4-(1H-1-tetrazolyl)phenyl]-2-(1H,3H)-thioimidazolone] | 0.03 (≈ 0.0605 µM) | 0.06 (≈ 0.121 µM) | <0.00025 | 0.25 (≈ 0.505 µM) | 0.25 (≈ 0.505 µM) | 0.004 (≈ 0.00807 µM) | 0.25 (≈ 0.505 µM) | 0.25 (≈ 0.505 µM) | 0.016 µg/mL (≈ 0.0323 µM) | 0.25 (≈ 0.505 µM) | 0.06 (≈ 0.121 µM) | – | – | – | – | – | – | – | –
6 | CC[C@H](C)C[C@H](C)CCCCCCCCC(=O)N[C@H]1C[C@@H](O)[C@@H](NCCN)NC(=O)[C@@H]2[C@@H](O)CCN2C(=O)[C@H]([C@H](O)CCN)NC(=O)[C@H]([C@H](O)[C@@H](O)c2ccc(O)cc2)NC(=O)[C@@H]2C[C@@H](O)CN2C(=O)[C@H]([C@@H](C)O)NC1=O [caspofungin, Caspofungin] | – | – | – | – | – | – | – | – | – | – | – | – | – | – | – | – | – | – | activity against Cryptococcus neoformans [12]: not active
7 | C[C@@H](c1ncncc1F)[C@](O)(Cn1cncn1)c1ccc(F)cc1F [VORI, VORICONAZOLE] | – | – | – | – | – | – | – | – | – | – | – | 0.06 (≈ 0.172 µM) | 1 (≈ 2.86 µM) | 0.03 (≈ 0.0859 µM) | 0.5 (≈ 1.43 µM) | 0.016 (≈ 0.0458 µM) | 1 (≈ 2.86 µM) | 0.16 (≈ 0.458 µM) | MIC [4, 22]: 0.25 µg/mL (≈ 0.716 µM); greater inhibition of ergosterol P450DM compared to fluconazole [13]: 1.6 fold; greater inhibition of ergosterol P450DM compared to fluconazole [14]: 160 fold; MIC [7, 26]: 0.25 µg/mL (≈ 0.716 µM); MIC ([8]; Aspergillus fumigatus Si-I, RPMI 1640, MOPS pH 7, read-out: MIC): 0.25 µg/mL (≈ 0.716 µM); MIC [9, 24]: 0.06 µg/mL (≈ 0.172 µM)
8 | CCC(C)n1ncn(-c2ccc(N3CCN(c4ccc(OCC5COC(Cn6cncn6)(c6ccc(Cl)cc6Cl)O5)cc4)CC3)cc2)c1=O (centres unmarked) [ITRA, ITRACONAZOLE] | – | – | – | – | – | – | – | – | – | – | – | 0.03 (≈ 0.0425 µM) | 0.5 (≈ 0.709 µM) | 0.03 (≈ 0.0425 µM) | 0.25 (≈ 0.354 µM) | 0.004 (≈ 0.00567 µM) | 0.25 (≈ 0.354 µM) | 0.016 (≈ 0.0227 µM) | MIC ([4]; Pichia kudriavzevii, pH 7): 0.125 µg/mL (≈ 0.177 µM); MIC [7, 26]: 0.25 µg/mL (≈ 0.354 µM); MIC ([8]; Aspergillus fumigatus, pH 7): 0.125 µg/mL (≈ 0.177 µM); MIC ([9]; Paecilomyces, pH 7): 0.125 µg/mL (≈ 0.177 µM)
